{"source": "paper PMC5218480", "about": "(PLoS ONE, 2017)", "tested_on": "MV-4-11 cells", "assay": "Gene expression microarray analysis (Affymetrix PrimeView) and GSEA", "format": "cell-based, human", "design": "RFU PODN (11730768_x_at) / Fold change /veh PODN (11730768_x_at) / RFU LINC00158 (11744669_a_at) / Fold change /veh LINC00158 (11744669_a_at) / RFU DUSP10 (11751237_a_at) / Fold change /veh DUSP10 (11751237_a_at) / RFU ID3 (11757404_x_at) / Fold change /veh ID3 (11757404_x_at) / RFU PLEKHG5 (11737974_s_at) / Fold change /veh PLEKHG5 (11737974_s_at) / RFU LRRC4B (11730491_at) / Fold change /veh LRRC4B (11730491_at) / RFU GIMAP4 (11747438_a_at) / Fold change /veh GIMAP4 (11747438_a_at) / RFU KRT8 (11758183_x_at) / Fold change /veh KRT8 (11758183_x_at) / RFU CNN1 (11734310_a_at) / Fold change /veh CNN1 (11734310_a_at) / RFU VPS37D (11726825_at) / Fold change /veh VPS37D (11726825_at) / RFU C10orf10 (11716522_x_at) / Fold change /veh C10orf10 (11716522_x_at) / RFU KIR2DL2 /// KIR2DL4 /// KIR2DL5A /// KIR2DL5B /// KIR2DS1 /// KIR2DS2 /// KIR2DS3 /// KIR2DS4 /// KIR3DL3 /// KIR3DL3 /// KIR3DS1 (11738374_at) / Fold change /veh KIR2DL2 /// KIR2DL4 /// KIR2DL5A /// KIR2DL5B /// KIR2DS1 /// KIR2DS2 /// KIR2DS3 /// KIR2DS4 /// KIR3DL3 /// KIR3DL3 /// KIR3DS1 (11738374_at) / RFU C1QL1 (11718748_at) / Fold change /veh C1QL1 (11718748_at) / RFU TMPRSS4 (11747572_a_at) / Fold change /veh TMPRSS4 (11747572_a_at) / RFU HAMP (11756126_x_at) / Fold change /veh HAMP (11756126_x_at) / RFU RNFT2 (11725882_a_at) / Fold change /veh RNFT2 (11725882_a_at) / RFU NR4A2 (11747474_a_at) / Fold change /veh NR4A2 (11747474_a_at) / RFU ABCC12 (11746883_a_at) / Fold change /veh ABCC12 (11746883_a_at) / RFU TMEM136 (11760407_x_at) / Fold change /veh TMEM136 (11760407_x_at) / RFU CLDN22 /// WWC2 (11732394_at) / Fold change /veh CLDN22 /// WWC2 (11732394_at) / RFU HLA-DPB1 (11760878_x_at) / Fold change /veh HLA-DPB1 (11760878_x_at) / RFU SPINT1 (11716480_a_at) / Fold change /veh SPINT1 (11716480_a_at) / RFU GAP43 (11754022_s_at) / Fold change /veh GAP43 (11754022_s_at) / RFU A4GNT (11735810_at) / Fold change /veh A4GNT (11735810_at) / RFU PRB3 (11715151_x_at) / Fold change /veh PRB3 (11715151_x_at) / RFU TUBB4B (11761932_at) / Fold change /veh TUBB4B (11761932_at) / RFU CAPN14 (11732068_a_at) / Fold change /veh CAPN14 (11732068_a_at) / RFU TMCC2 (11721928_a_at) / Fold change /veh TMCC2 (11721928_a_at) / RFU IRGQ (11745062_a_at) / Fold change /veh IRGQ (11745062_a_at) / RFU FAM174B (11720279_a_at) / Fold change /veh FAM174B (11720279_a_at) / RFU TMPRSS4 (11748680_a_at) / Fold change /veh TMPRSS4 (11748680_a_at) / RFU FAM212B (11763350_a_at) / Fold change /veh FAM212B (11763350_a_at) / RFU PLEKHG5 (11743358_a_at) / Fold change /veh PLEKHG5 (11743358_a_at) / RFU ZSCAN30 (11745921_a_at) / Fold change /veh ZSCAN30 (11745921_a_at) / RFU CMKLR1 (11741424_a_at) / Fold change /veh CMKLR1 (11741424_a_at) / RFU LOC101060620 /// MAPK8IP1 (11723275_at) / Fold change /veh LOC101060620 /// MAPK8IP1 (11723275_at) / RFU SPTSSB (11747773_x_at) / Fold change /veh SPTSSB (11747773_x_at) / RFU PRSS12 (11739890_at) / Fold change /veh PRSS12 (11739890_at) / RFU BIN1 (11741810_x_at) / Fold change /veh BIN1 (11741810_x_at) / RFU WNT11 (11732464_a_at) / Fold change /veh WNT11 (11732464_a_at) / RFU C10orf10 (11716521_a_at) / Fold change /veh C10orf10 (11716521_a_at) / RFU C5orf56 (11738089_at) / Fold change /veh C5orf56 (11738089_at) / RFU CYB561 (11721691_x_at) / Fold change /veh CYB561 (11721691_x_at) / RFU ANKRD19P (11752326_a_at) / Fold change /veh ANKRD19P (11752326_a_at) / RFU OR2T12 /// OR2T33 /// OR2T8 (11738714_s_at) / Fold change /veh OR2T12 /// OR2T33 /// OR2T8 (11738714_s_at) / RFU VCAN (11748164_a_at) / Fold change /veh VCAN (11748164_a_at) / RFU JSRP1 (11732532_at) / Fold change /veh JSRP1 (11732532_at) / RFU KRTAP10-11 (11738290_x_at) / Fold change /veh KRTAP10-11 (11738290_x_at) / RFU MYO3A (11730013_a_at) / Fold change /veh MYO3A (11730013_a_at) / RFU EBF3 (11725865_a_at) / Fold change /veh EBF3 (11725865_a_at) / RFU CAMK2N1 (11719241_x_at) / Fold change /veh CAMK2N1 (11719241_x_at) / RFU C5orf56 (11738088_a_at) / Fold change /veh C5orf56 (11738088_a_at) / RFU OLFML3 (11715873_a_at) / Fold change /veh OLFML3 (11715873_a_at) / RFU LOC100653217 /// NTM (11731650_a_at) / Fold change /veh LOC100653217 /// NTM (11731650_a_at) / RFU MAPK11 (11762145_a_at) / Fold change /veh MAPK11 (11762145_a_at) / RFU FIZ1 (11724087_x_at) / Fold change /veh FIZ1 (11724087_x_at) / RFU OASL (11726364_x_at) / Fold change /veh OASL (11726364_x_at) / RFU SOX15 (11748057_x_at) / Fold change /veh SOX15 (11748057_x_at) / RFU CD79A (11719716_a_at) / Fold change /veh CD79A (11719716_a_at) / RFU HIST1H1D (11736915_at) / Fold change /veh HIST1H1D (11736915_at) / RFU CASKIN2 (11723855_a_at) / Fold change /veh CASKIN2 (11723855_a_at) / RFU LOC730098 (11760151_x_at) / Fold change /veh LOC730098 (11760151_x_at) / RFU OR4N2 (11742367_at) / Fold change /veh OR4N2 (11742367_at) / RFU PRRT2 (11749266_a_at) / Fold change /veh PRRT2 (11749266_a_at) / RFU SNX32 (11753110_a_at) / Fold change /veh SNX32 (11753110_a_at) / RFU CDHR5 (11726645_a_at) / Fold change /veh CDHR5 (11726645_a_at) / RFU RCAN1 (11760418_a_at) / Fold change /veh RCAN1 (11760418_a_at) / RFU FAM167A (11723789_a_at) / Fold change /veh FAM167A (11723789_a_at) / RFU FAM26E (11764081_at) / Fold change /veh FAM26E (11764081_at) / RFU ISYNA1 (11749810_s_at) / Fold change /veh ISYNA1 (11749810_s_at) / RFU ACY1 (11761880_at) / Fold change /veh ACY1 (11761880_at) / RFU 11764098_at / Fold change /veh 11764098_at / RFU SAMD14 (11745864_x_at) / Fold change /veh SAMD14 (11745864_x_at) / RFU NPB (11741838_a_at) / Fold change /veh NPB (11741838_a_at) / RFU TMPRSS6 (11731388_a_at) / Fold change /veh TMPRSS6 (11731388_a_at) / RFU KRTAP10-2 (11738614_at) / Fold change /veh KRTAP10-2 (11738614_at) / RFU ARHGAP8 /// PRR5-ARHGAP8 (11727945_x_at) / Fold change /veh ARHGAP8 /// PRR5-ARHGAP8 (11727945_x_at) / RFU KRTAP5-7 /// NADSYN1 (11734609_at) / Fold change /veh KRTAP5-7 /// NADSYN1 (11734609_at) / RFU RASL12 (11751679_a_at) / Fold change /veh RASL12 (11751679_a_at) / RFU CDKN2B (11736163_a_at) / Fold change /veh CDKN2B (11736163_a_at) / RFU PRF1 (11729649_at) / Fold change /veh PRF1 (11729649_at) / RFU, ZNF638 /// ZNF638-IT1 / Fold change vs veh, ZNF638 /// ZNF638-IT1 / RFU, PANK3 / Fold change vs veh, PANK3 / RFU, SH3YL1 / Fold change vs veh, SH3YL1 / RFU, ZEB2 / Fold change vs veh, ZEB2 / RFU, NRIP1 / Fold change vs veh, NRIP1 / RFU, PTTG1IP / Fold change vs veh, PTTG1IP / RFU, CAPN2 / Fold change vs veh, CAPN2 / RFU, MED14 / Fold change vs veh, MED14 / RFU, SNORA58 / Fold change vs veh, SNORA58 / RFU, C1orf63 / Fold change vs veh, C1orf63 / RFU, LRRFIP1 / Fold change vs veh, LRRFIP1 / RFU, NDUFAF7 / Fold change vs veh, NDUFAF7 / RFU, SLC12A2 / Fold change vs veh, SLC12A2 / RFU, IBTK / Fold change vs veh, IBTK / RFU, ESF1 / Fold change vs veh, ESF1 / Fold change vs veh, TMEM50B / RFU, TAOK1 / Fold change vs veh, TAOK1 / RFU, ACBD3 / Fold change vs veh, ACBD3 / RFU, TMA16 / Fold change vs veh, TMA16 / RFU, RWDD3 / Fold change vs veh, RWDD3 / RFU, BCAT1 / Fold change vs veh, BCAT1 / RFU, EDEM3 / Fold change vs veh, EDEM3 / RFU, TMEM33 / Fold change vs veh, TMEM33 / RFU, WDR75 / Fold change vs veh, WDR75 / RFU, AHCTF1 / Fold change vs veh, AHCTF1 / RFU, TFRC / Fold change vs veh, TFRC / RFU, ZDHHC17 / Fold change vs veh, ZDHHC17 / RFU, NOM1 / Fold change vs veh, NOM1 / RFU, ARL8B / Fold change vs veh, ARL8B / RFU, ZBTB11 / Fold change vs veh, ZBTB11 / RFU, TAMM41 / Fold change vs veh, TAMM41 / RFU, KIAA1704 /// LOC100996395 / Fold change vs veh, KIAA1704 /// LOC100996395 / RFU, ING1 / Fold change vs veh, ING1 / RFU, TRMT61B / Fold change vs veh, TRMT61B / RFU, FUBP3 / Fold change vs veh, FUBP3 / RFU, TP53 / Fold change vs veh, TP53 / RFU, TNKS2 / Fold change vs veh, TNKS2 / RFU, ZFP14 / Fold change vs veh, ZFP14 / RFU, ACTR2 / Fold change vs veh, ACTR2 / RFU, PPP3R1 / Fold change vs veh, PPP3R1 / RFU, PIK3R1 / Fold change vs veh, PIK3R1 / RFU, HNRNPA1 / Fold change vs veh, HNRNPA1 / RFU, RNF170 / Fold change vs veh, RNF170 / RFU, ZNF28 / Fold change vs veh, ZNF28 / RFU, RNGTT / Fold change vs veh, RNGTT / RFU, OGT / Fold change vs veh, OGT / RFU, BRD1 / Fold change vs veh, BRD1 / RFU, MARS / Fold change vs veh, MARS / RFU, ZNF655 / Fold change vs veh, ZNF655 / RFU, FAHD1 / Fold change vs veh, FAHD1 / RFU, BDP1 / Fold change vs veh, BDP1 / RFU, LRRCC1 / Fold change vs veh, LRRCC1 / RFU, ARID1A / Fold change vs veh, ARID1A / RFU, ZNF146 / Fold change vs veh, ZNF146 / RFU, ZNF330 / Fold change vs veh, ZNF330 / RFU, GPN3 / Fold change vs veh, GPN3 / RFU, C9orf123 / Fold change vs veh, C9orf123 / RFU, N4BP2L2 / Fold change vs veh, N4BP2L2 / RFU, ARFIP1 / Fold change vs veh, ARFIP1 / RFU, FAM179B / Fold change vs veh, FAM179B / RFU, BCL10 / Fold change vs veh, BCL10 / RFU, UHRF1BP1L / Fold change vs veh, UHRF1BP1L / RFU, BET1 / Fold change vs veh, BET1 / RFU, CNOT2 / Fold change vs veh, CNOT2 / RFU, ZNF268 / Fold change vs veh, ZNF268 / Fold change vs veh, ZNF507 / RFU, DGCR2 / Fold change vs veh, DGCR2 / RFU, WDSUB1 / Fold change vs veh, WDSUB1 / Fold change vs veh, HSP90B1 /// MIR3652 / RFU, ADSS / Fold change vs veh, ADSS / RFU, GK / Fold change vs veh, GK / RFU, ZNF148 / Fold change vs veh, ZNF148 / RFU, TAF9 / Fold change vs veh, TAF9 / RFU, SLC1A5 / Fold change vs veh, SLC1A5 / RFU, SLMO2 / Fold change vs veh, SLMO2 / RFU, ABCC4 / Fold change vs veh, ABCC4 / RFU, LOC101060439 /// RAP1B / Fold change vs veh, LOC101060439 /// RAP1B / RFU, RFX7 / Fold change vs veh, RFX7 / RFU, GTPBP10 / Fold change vs veh, GTPBP10 / RFU, CNEP1R1 / Fold change vs veh, CNEP1R1 / RFU, BIVM-ERCC5 /// ERCC5 / Fold change vs veh, BIVM-ERCC5 /// ERCC5 / RFU, ILF3 / Fold change vs veh, ILF3 / RFU 11762660_at / Fold change /veh 11762660_at / RFU VCAN (11757783_s_at) / Fold change /veh VCAN (11757783_s_at) / RFU DDX43 (11728927_at) / Fold change /veh DDX43 (11728927_at) / RFU KRT8 (11758188_x_at) / Fold change /veh KRT8 (11758188_x_at) / RFU NKD1 (11759106_at) / Fold change /veh NKD1 (11759106_at) / RFU SRD5A1 (11742802_a_at) / Fold change /veh SRD5A1 (11742802_a_at) / RFU TPSAB1 /// TPSB2 (11721975_s_at) / Fold change /veh TPSAB1 /// TPSB2 (11721975_s_at) / RFU GSTM3 (11746129_a_at) / Fold change /veh GSTM3 (11746129_a_at) / RFU IL23R (11737362_x_at) / Fold change /veh IL23R (11737362_x_at) / RFU TMEM51 (11727254_a_at) / Fold change /veh TMEM51 (11727254_a_at) / RFU PIWIL2 (11732686_x_at) / Fold change /veh PIWIL2 (11732686_x_at) / RFU ORM1 (11744905_x_at) / Fold change /veh ORM1 (11744905_x_at) / RFU CCDC152 (11743942_at) / Fold change /veh CCDC152 (11743942_at) / RFU ECM1 (11717891_a_at) / Fold change /veh ECM1 (11717891_a_at) / RFU IL23R (11748794_a_at) / Fold change /veh IL23R (11748794_a_at) / RFU TNFAIP8L3 (11732012_x_at) / Fold change /veh TNFAIP8L3 (11732012_x_at) / RFU MBOAT4 (11741988_at) / Fold change /veh MBOAT4 (11741988_at) / RFU 11764193_at / Fold change /veh 11764193_at / RFU TMEM53 (11763286_at) / Fold change /veh TMEM53 (11763286_at) / RFU MAGEB2 (11727129_at) / Fold change /veh MAGEB2 (11727129_at) / RFU TMEM200A (11744735_a_at) / Fold change /veh TMEM200A (11744735_a_at) / RFU CCDC152 (11751479_a_at) / Fold change /veh CCDC152 (11751479_a_at) / RFU FAM211A (11726209_a_at) / Fold change /veh FAM211A (11726209_a_at) / RFU RGS16 (11746705_a_at) / Fold change /veh RGS16 (11746705_a_at) / RFU VCAN (11755009_s_at) / Fold change /veh VCAN (11755009_s_at) / RFU RHOB (11743442_s_at) / Fold change /veh RHOB (11743442_s_at) / RFU RGS16 (11720943_a_at) / Fold change /veh RGS16 (11720943_a_at) / RFU RGS16 (11720944_at) / Fold change /veh RGS16 (11720944_at) / RFU, VPS4B / Fold change vs veh, VPS4B / RFU, CREB1 / Fold change vs veh, CREB1 / RFU, DNAJC13 / Fold change vs veh, DNAJC13 / RFU, GNAQ / Fold change vs veh, GNAQ / RFU, CDK5R1 / Fold change vs veh, CDK5R1 / RFU, ZRANB3 / Fold change vs veh, ZRANB3 / RFU, CUL4A / Fold change vs veh, CUL4A / RFU, CCNY / Fold change vs veh, CCNY / RFU, UFL1 / Fold change vs veh, UFL1 / RFU, COG3 / Fold change vs veh, COG3 / RFU, DIAPH2 / Fold change vs veh, DIAPH2 / RFU, SKA2 / Fold change vs veh, SKA2 / RFU, AFF3 / Fold change vs veh, AFF3 / RFU, LMF1 / Fold change vs veh, LMF1 / RFU, IPO11 / Fold change vs veh, IPO11 / RFU, DFFB / Fold change vs veh, DFFB / RFU, FOXP1 / Fold change vs veh, FOXP1 / RFU, CARD8 / Fold change vs veh, CARD8 / RFU, STRN3 / Fold change vs veh, STRN3 / RFU, ADK / Fold change vs veh, ADK / RFU, RASSF2 / Fold change vs veh, RASSF2 / RFU, WIPF1 / Fold change vs veh, WIPF1 / RFU, LARP1B / Fold change vs veh, LARP1B / RFU, RASA1 / Fold change vs veh, RASA1 / RFU, RB1 / Fold change vs veh, RB1 / RFU, PPFIA1 / Fold change vs veh, PPFIA1 / RFU, MAT2A / Fold change vs veh, MAT2A / RFU, CCT5 / Fold change vs veh, CCT5 / RFU, WDR92 / Fold change vs veh, WDR92 / RFU, CUX1 / Fold change vs veh, CUX1 / RFU, TTC7A / Fold change vs veh, TTC7A / RFU, TMEM135 / Fold change vs veh, TMEM135 / RFU, DEPTOR / Fold change vs veh, DEPTOR / RFU, CPM / Fold change vs veh, CPM / RFU, DNAJB6 / Fold change vs veh, DNAJB6 / RFU, CACNA2D3 / Fold change vs veh, CACNA2D3 / RFU, DTX4 / Fold change vs veh, DTX4 / RFU, TFCP2 / Fold change vs veh, TFCP2 / RFU, GMCL1 /// GMCL1P1 / Fold change vs veh, GMCL1 /// GMCL1P1 / RFU, AEBP2 / Fold change vs veh, AEBP2 / RFU, SNHG1 /// SNORD22 /// SNORD25 /// SNORD26 /// SNORD27 /// SNORD28 /// SNORD29 /// SNORD31 / Fold change vs veh, SNHG1 /// SNORD22 /// SNORD25 /// SNORD26 /// SNORD27 /// SNORD28 /// SNORD29 /// SNORD31 / Fold change (Aza/veh), C12orf56 (ProbeSet 11735607_a_at) / Fold change (ACY-1035/veh), C12orf56 (ProbeSet 11735607_a_at) / Fold change (Aza/veh), FGFR1OP (ProbeSet 11751329_s_at) / Fold change (ACY-1035/veh), FGFR1OP (ProbeSet 11751329_s_at) / Fold change (Aza/veh), VPS36 (ProbeSet 11739960_a_at) / Fold change (ACY-1035/veh), VPS36 (ProbeSet 11739960_a_at) / RFU SYPL1 (11715823_x_at) / Fold change /veh SYPL1 (11715823_x_at) / RFU IGFBP7 (11715501_s_at) / Fold change /veh IGFBP7 (11715501_s_at) / RFU REEP3 (11722064_at) / Fold change /veh REEP3 (11722064_at) / RFU IGLL1 (11728026_x_at) / Fold change /veh IGLL1 (11728026_x_at): dose or concentration left out as unconfirmed", "settings": "MV-4-11 cells, 48 hours"}
{"smiles": "Nc1ncn([C@@H]2O[C@H](CO)[C@@H](O)[C@H]2O)c(=O)n1", "note": "[azacitidine]", "values": [{"measurement": "Fold change /veh CNN1 (11734310_a_at)", "value": 1.15}]}
